Patent US9334264B2, “NAMPT inhibitors” (AbbVie Inc., priority 2012, dated 2016)
Each block holds one molecule with its values, some of them ahead of it.

Key:
NAMPT = NAMPT (Homo sapiens, UniProt P43490); assay: Time-Resolved Fluorescence Resonance Energy Transfer (TR-FRET) Binding Assay of NAMPT with PRPP; conditions: 200 μM PRPP and 2.5 mM ATP; 2 nM NAMPT, 2 nM probe, equilibrated 16 hours
Description: Time-Resolved Fluorescence Resonance Energy Transfer (TR-FRET) Binding Assay of NAMPT with PRPP
Compound handling and data processing were identical to the assay in the absence of substrates (above). Final concentrations were 1× assay buffer, 2% DMSO, 2 nM NAMPT, 2 nM probe, 1 nM Tb-anti-His antibody (Invitrogen #PV5895), 200 μM PRPP and 2.5 mM ATP. Reactions were equilibrated for 16 hours prior to measurement to allow for potential enzymatic modification of test compounds.

[1] = target: NAMPT (human, recombinant, C-terminally His-tagged) (Homo sapiens, UniProt P43490); assay: Time-Resolved Fluorescence Resonance Energy Transfer (TR-FRET) Binding Assay of NAMPT; conditions: absence of substrates; 6.8 nM NAMPT, 200 nM probe, equilibrated 3 hours
Description: Determination of the utility of compounds having Formula (I) as binders to and inhibitors of NAMPT was performed using Time-Resolved Fluorescence Resonance Energy Transfer (TR-FRET) binding assays.
Time-Resolved Fluorescence Resonance Energy Transfer (TR-FRET) Binding Assay of NAMPT
Test compounds were serially diluted (typically 11 half log dilutions) in neat DMSO to 50× final concentrations prior to dilution with assay buffer (50 mM HEPES (NaOH), pH 7.5, 100 mM NaCl, 10 mM MgCl2, 1 mM DTT, 1% Glycerol) to 3× and 6% DMSO. Six μL were transferred to 384-well low-volume plates (Owens Corning #3673). To this, 12 μL of a 1.5× solution containing enzyme, probe and antibody were added. Final concentrations in the 18 μL reactions were 1× assay buffer, 2% DMSO, 6.8 nM NAMPT (human, recombinant, C-terminally His-tagged), 200 nM probe (a potent nicotinamide-competitive inhibitor conjugated to Oregon Green 488) and 1 nM Tb-anti-His antibody (Invitrogen #PV5895). Reactions were equilibrated at room temperature for 3 hours prior to reading on an Envision multi-label plate reader (Perkin Elmer; Ex=337 nm, Em=520 and 495 nm). Time-resolved FRET ratios (Em520/Em495) were normalized to controls, plotted as a function of compound concentration and fit with the four-parameter logistic equation to determine IC50s.

Chain of NAMPT (P43490 whole entry): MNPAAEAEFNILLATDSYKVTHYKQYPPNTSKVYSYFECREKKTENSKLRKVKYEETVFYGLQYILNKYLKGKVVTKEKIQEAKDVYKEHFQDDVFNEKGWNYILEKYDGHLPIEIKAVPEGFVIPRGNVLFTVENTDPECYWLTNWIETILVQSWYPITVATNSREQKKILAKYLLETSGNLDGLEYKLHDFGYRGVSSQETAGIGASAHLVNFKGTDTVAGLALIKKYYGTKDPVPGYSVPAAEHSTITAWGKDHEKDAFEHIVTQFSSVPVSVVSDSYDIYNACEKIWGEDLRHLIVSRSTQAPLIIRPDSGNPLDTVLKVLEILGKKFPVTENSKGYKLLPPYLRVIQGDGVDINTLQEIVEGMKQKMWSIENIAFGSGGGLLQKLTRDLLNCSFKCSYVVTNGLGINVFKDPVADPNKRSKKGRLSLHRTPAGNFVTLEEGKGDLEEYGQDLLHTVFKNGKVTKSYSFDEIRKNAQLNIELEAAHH
Chain of NAMPT (human, recombinant, C-terminally His-tagged) (P43490 whole entry): as above

Compound: O=C(NCCCn1ccnc1)c1cnc(N(CC(=O)N2CCOCC2)Cc2ccc(F)cc2)s1 [Example 22, 2-{(4-fluorobenzyl)[2-(morpholin-4-yl)-2-oxoethyl]amino}-N-[3-(1H-imidazol-1-yl)propyl]-1,3-thiazole-5-carboxamide]
- IC50 (NAMPT): 60.2 nM
- IC50 [1]: 384 nM

Compound: CC(C)CC(=O)N(CCc1ccc(F)cc1)c1ncc(C(=O)NCCCn2ccnc2)s1 [Example 45, 2-{[2-(4-fluorophenyl)ethyl](3-methylbutanoyl)amino}-N-[3-(1H-imidazol-1-yl)propyl]-1,3-thiazole-5-carboxamide]
- IC50 (NAMPT): 0.206 nM
- IC50 [1]: 611 nM

Compound: CC1CN(C(=O)N(Cc2ccc(F)cc2)c2ncc(C(=O)NCCCn3ccnc3)s2)CC(C)O1 (stereo not shown) [Example 70, N-(4-fluorobenzyl)-N-(5-{[3-(1H-imidazol-1-yl)propyl]carbamoyl}-1,3-thiazol-2-yl)-2,6-dimethylmorpholine-4-carboxamide]
- IC50 (NAMPT): 5.08 nM
- IC50 [1]: > 10000 nM

Compound: CN(C)CC(=O)N(Cc1ccc(F)cc1)c1ncc(C(=O)NCCCn2ccnc2)s1 [Example 26, 2-[(N,N-dimethylglycyl)(4-fluorobenzyl)amino]-N-[3-(1H-imidazol-1-yl)propyl]-1,3-thiazole-5-carboxamide]
- IC50 (NAMPT): 1.21 nM

Compound: COCCN(C)C(=O)N(Cc1ccc(F)cc1)c1ncc(C(=O)NCCCn2ccnc2)s1 [Example 69, 2-{(4-fluorobenzyl)[(2-methoxyethyl)(methyl)carbamoyl]amino}-N-[3-(1H-imidazol-1-yl)propyl]-1,3-thiazole-5-carboxamide]
- IC50 (NAMPT): 3.98 nM
- IC50 [1]: > 10000 nM

Compound: COCCNC(=O)N(Cc1ccc(F)cc1)c1ncc(C(=O)NCCCn2ccnc2)s1 [Example 82, 2-{(4-fluorobenzyl)[(2-methoxyethyl)carbamoyl]amino}-N-[3-(1H-imidazol-1-yl)propyl]-1,3-thiazole-5-carboxamide]
- IC50 (NAMPT): 1.72 nM
- IC50 [1]: 7540 nM

Compound: CN(C)C(=O)CN(Cc1ccc(F)cc1)c1ncc(C(=O)NCCCn2ccnc2)s1 [Example 20, 2-{[2-(dimethylamino)-2-oxoethyl](4-fluorobenzyl)amino}-N-[3-(1H-imidazol-1-yl)propyl]-1,3-thiazole-5-carboxamide]
- IC50 (NAMPT): 12500 nM

Compound: O=C(NCCCn1ccnc1)c1cnc(N(Cc2ccc(F)cc2)Cc2ccccc2Cl)s1 [Example 16, 2-[(2-chlorobenzyl)(4-fluorobenzyl)amino]-N-[3-(1H-imidazol-1-yl)propyl]-1,3-thiazole-5-carboxamide]
- IC50 (NAMPT): 217 nM
- IC50 [1]: 4720 nM

Compound: O=C(NCCCn1ccnc1)c1cnc(N(Cc2ccc(F)cc2)Cc2ccc(-c3cccnc3)cc2)s1 [Example 1, 2-{(4-fluorobenzyl)[4-(pyridin-3-yl)benzyl]amino}-N-[3-(1H-imidazol-1-yl)propyl]-1,3-thiazole-5-carboxamide]
- IC50 [1]: 63.8 nM

Compound: O=C(NCCCn1ccnc1)c1cnc(N(Cc2ccc(F)cc2)Cc2ccc(Cl)cc2)s1 [Example 15, 2-[(4-chlorobenzyl)(4-fluorobenzyl)amino]-N-[3-(1H-imidazol-1-yl)propyl]-1,3-thiazole-5-carboxamide]
- IC50 (NAMPT): 92.1 nM
- IC50 [1]: 3820 nM

Compound: O=CN1CCN(CC(=O)N(Cc2ccc(F)cc2)c2ncc(C(=O)NCCCn3ccnc3)s2)CC1 [Example 32, 2-{(4-fluorobenzyl)[(4-formylpiperazin-1-yl)acetyl]amino}-N-[3-(1H-imidazol-1-yl)propyl]-1,3-thiazole-5-carboxamide]
- IC50 (NAMPT): 1.33 nM
- IC50 [1]: > 10000 nM

Compound: O=C(NCCCn1ccnc1)c1cnc(N(CCN2CCCC2)Cc2ccc(F)cc2)s1 [Example 9, 2-{(4-fluorobenzyl)[2-(pyrrolidin-1-yl)ethyl]amino}-N-[3-(1H-imidazol-1-yl)propyl]-1,3-thiazole-5-carboxamide]
- IC50 (NAMPT): 641 nM

Compound: CN(Cc1ccc(F)cc1)c1ncc(C(=O)NCCCn2ccnc2)s1 [Example 3, 2-[(4-fluorobenzyl)(methyl)amino]-N-[3-(1H-imidazol-1-yl)propyl]-1,3-thiazole-5-carboxamide]
- IC50 (NAMPT): 71.5 nM

Compound: CC(C)NC(=O)CN(Cc1ccc(F)cc1)c1ncc(C(=O)NCCCn2ccnc2)s1 [Example 19, 2-{(4-fluorobenzyl)[2-oxo-2-(propan-2-ylamino)ethyl]amino}-N-[3-(1H-imidazol-1-yl)propyl]-1,3-thiazole-5-carboxamide]
- IC50 (NAMPT): 12500 nM

Compound: O=C(NCCCn1ccnc1)c1cnc(N(Cc2ccc(F)cc2)Cc2cc(Cl)ccc2Cl)s1 [Example 17, 2-[(2,5-dichlorobenzyl)(4-fluorobenzyl)amino]-N-[3-(1H-imidazol-1-yl)propyl]-1,3-thiazole-5-carboxamide]
- IC50 (NAMPT): 1220 nM

Compound: O=C(NCCCn1ccnc1)c1cnc(N(Cc2ccc(F)cc2)Cc2c(Cl)ccc3c2OCO3)s1 [Example 14, 2-{[(5-chloro-1,3-benzodioxol-4-yl)methyl](4-fluorobenzyl)amino}-N-[3-(1H-imidazol-1-yl)propyl]-1,3-thiazole-5-carboxamide]
- IC50 (NAMPT): 338 nM

Continued, values first:

- IC50 (NAMPT): 3.02 nM
- IC50 [1]: 1250 nM
Compound: COCCC(=O)N(Cc1ccc(C)cn1)c1ncc(C(=O)NCCCn2ccnc2)s1 [Example 117, N-[3-(1H-imidazol-1-yl)propyl]-2-{(3-methoxypropanoyl)[(5-methylpyridin-2-yl)methyl]amino}-1,3-thiazole-5-carboxamide]

- IC50 (NAMPT): 0.533 nM
- IC50 [1]: 3180 nM
Compound: CC(C)(CO)CNC(=O)N(Cc1ccc(C#N)cc1)c1ncc(C(=O)NCCCn2ccnc2)s1 [Example 127, 2-{(4-cyanobenzyl)[(3-hydroxy-2,2-dimethylpropyl)carbamoyl]amino}-N-[3-(1H-imidazol-1-yl)propyl]-1,3-thiazole-5-carboxamide]

- IC50 (NAMPT): 2.24 nM
- IC50 [1]: 814 nM
Compound: COCCC(=O)N(CCc1cccc(OC)c1)c1ncc(C(=O)NCCCn2ccnc2)s1 [Example 107, N-[3-(1H-imidazol-1-yl)propyl]-2-{[2-(3-methoxyphenyl)ethyl](3-methoxypropanoyl)amino}-1,3-thiazole-5-carboxamide acetate (1:1)]

- IC50 (NAMPT): 0.338 nM
- IC50 [1]: > 10000 nM
Compound: COCCC(=O)N(CCC(=O)N1CCCC1)c1ncc(C(=O)NCCCn2ccnc2)s1 [Example 195, N-[3-(1H-imidazol-1-yl)propyl]-2-{(3-methoxypropanoyl)[3-oxo-3-(pyrrolidin-1-yl)propyl]amino}-1,3-thiazole-5-carboxamide]

- IC50 (NAMPT): 0.216 nM
- IC50 [1]: 3210 nM
Compound: COCCN(C(=O)Cc1ccc(C#N)cc1)c1ncc(C(=O)NCCCn2ccnc2)s1 [Example 187, 2-{[(4-cyanophenyl)acetyl](2-methoxyethyl)amino}-N-[3-(1H-imidazol-1-yl)propyl]-1,3-thiazole-5-carboxamide]

- IC50 (NAMPT): 291 nM
- IC50 [1]: 8230 nM
Compound: CCOC(=O)CCNC(=O)N(Cc1ccc(C#N)cc1)c1ncc(C(=O)NCCCn2ccnc2)s1 [Example 159, ethyl N-[(4-cyanobenzyl)(5-{[3-(1H-imidazol-1-yl)propyl]carbamoyl}-1,3-thiazol-2-yl)carbamoyl]-beta-alaninate]

- IC50 (NAMPT): 0.405 nM
- IC50 [1]: 4990 nM
Compound: COCCC(=O)N(CC(=O)N1CCCC1)c1ncc(C(=O)NCCCn2ccnc2)s1 [Example 202, N-[3-(1H-imidazol-1-yl)propyl]-2-{(3-methoxypropanoyl)[2-oxo-2-(pyrrolidin-1-yl)ethyl]amino}-1,3-thiazole-5-carboxamide]

- IC50 (NAMPT): 99.1 nM
- IC50 [1]: 340 nM
Compound: CCOC(=O)C(C)CNC(=O)N(Cc1ccc(C#N)cc1)c1ncc(C(=O)NCCCn2ccnc2)s1 (stereo not shown) [Example 165, ethyl 3-{[(4-cyanobenzyl)(5-{[3-(1H-imidazol-1-yl)propyl]carbamoyl}-1,3-thiazol-2-yl)carbamoyl]amino}-2-methylpropanoate]

- IC50 (NAMPT): 1.16 nM
- IC50 [1]: > 10000 nM
Compound: CC(CO)NC(=O)N(Cc1ccc(C#N)cc1)c1ncc(C(=O)NCCCn2ccnc2)s1 (stereo not shown) [Example 129, 2-{(4-cyanobenzyl)[(1-hydroxypropan-2-yl)carbamoyl]amino}-N-[3-(1H-imidazol-1-yl)propyl]-1,3-thiazole-5-carboxamide]

- IC50 (NAMPT): 0.192 nM
- IC50 [1]: 2740 nM
Compound: CC(C)OCCNC(=O)N(CCc1ccc(Cl)cn1)c1ncc(C(=O)NCCCn2ccnc2)s1 [Example 210, 2-([2-(5-chloropyridin-2-yl)ethyl]{[2-(propan-2-yloxy)ethyl]carbamoyl}amino)-N-[3-(1H-imidazol-1-yl)propyl]-1,3-thiazole-5-carboxamide]

- IC50 (NAMPT): 13.7 nM
- IC50 [1]: > 10000 nM
Compound: CCOCC(O)CNC(=O)N(Cc1ccc(C#N)cc1)c1ncc(C(=O)NCCCn2ccnc2)s1 (stereo not shown) [Example 143, 2-{(4-cyanobenzyl)[(3-ethoxy-2-hydroxypropyl)carbamoyl]amino}-N-[3-(1H-imidazol-1-yl)propyl]-1,3-thiazole-5-carboxamide]
